The values below come from US20150246908A1, “KLF5 MODULATORS” (The Scripps Research Institute, priority 2012, published 2015).

In one data set the test system is KLF5 protein. As to the kind of experiment: KLF5 protein levels by Western blot in colon cancer cell lines. In kind it is cell-based. From the text: The chemical structure of this compound is described using Formula (I) in which R^1=(E)-2-(3-chlorophenyl)ethenyl, R^2═H, R^3=4-tetrahydro-2H-thiopyran 1,1-dioxide, R^4=Me, X═NH, Y=absent).
Data set [1] relates to ovarian cancer line IGROV1. As to the kind of experiment: NCI60 cytotoxicity, IGROV1. In kind it is cell-based. The conditions noted are these: IGROV1, high KLF5 mRNA level. From the text:
(§1) Moreover, cytotoxicity in general trends with KLF5 levels in the tumor types. […] Only the colon cancer cell line KM12, the ovarian cancer line IGROV1, and the non-small cell lung cancer line NCI-H322M are the NCI60 cell lines high with respect to KLF5 mRNA levels that are ML264-insensitive.

A further data set in a line: Stability in PBS. In kind it is physicochemical. The conditions noted are these: read-out: Stability (t1/2) in PBS.
Data set [2] relates to colon cancer cell line KM12. The data set can be described thus: NCI60 cytotoxicity, KM12. The conditions noted are these: KM12, high KLF5 mRNA level. In kind it is cell-based.
Text: as §1

The next data set concerns HCT-116 (colon). The data set can be described thus: Tumor cell line potency, HCT-116. In kind it is cell-based.
The test system of data set [3] is non-small cell lung cancer line NCI-H322M. As to the kind of experiment: NCI60 cytotoxicity, NCI-H322M. In kind it is cell-based. The conditions noted are these: high KLF5 mRNA level.
Text: as §1

The next data set concerns 47 kinases. As to the kind of experiment: Off-target activity vs. 47 kinases. In kind it is biochemical.
For the next data set, the system named is DLD-1 cell line. As to the kind of experiment: DLD-1 cell viability. In kind it is cell-based. The settings on record: for EC50: cell viability, footnote calls it IC50 cell viability.
A short description of data set [4]: Michael acceptor test, incubation with GSH, LCMS. In kind it is physicochemical. The conditions noted are these: by LCMS after incubation with 100 μM GSH.
The next data set deals with SW-620 (colon). As to the kind of experiment: Tumor cell line potency, SW-620. In kind it is cell-based.
A short description of data set [5]: Solubility measured at Scripps. The conditions noted are these: aqueous buffer. In kind it is physicochemical.
The next data set relates to HT29 (colon). The data set can be described thus: Tumor cell line potency, HT29. In kind it is cell-based.
For data set [6], the system named is 67 protein targets of therapeutic and/or toxicological interest (GPCRs, ion channels, enzymes, etc.). The data set can be described thus: Off-target activity vs. 67 protein targets.
A further data set deals with human KLF5 promoter. The data set can be described thus: KLF5 promoter luciferase assay in DLD-1/pGL4.18KLF5p cell line. In kind it is cell-based. The settings on record: measuring luciferase activity.
Setting [7] is: Homo sapiens, DLD-1, DlD-1 4.9 cell line.

Structures are written as SMILES. In brackets after ≈: the same amount, converted by molar mass. Entries after “also recorded” stand apart in the source; their conditions may differ. Read-outs that look alike come from different tables or passages of the source.

With `CN(C(=O)CNC(=O)/C=C/c1cccc([N+](=O)[O-])c1)C1CCS(=O)(=O)C1` (stereo not shown) [CID46931037], the “effect on KLF5 protein levels” value in the data set with KLF5 protein is “lesser effects on KLF5 expression than ML264”.

Consider `CN(C(=O)COC(=O)/C=C/c1cccc([N+](=O)[O-])c1)C1CCS(=O)(=O)C1` (stereo not shown) [CID 5951923], for which, in the data set with KLF5 protein, the “effect on KLF5 protein levels” value is recorded as “lesser effects on KLF5 expression than ML264”.

As to `CN(C(=O)CNC(=O)/C=C/c1cccc(Cl)c1)C1CCS(=O)(=O)CC1` [Compound 1, (E)-3-(3-chlorophenyl)-N-(2-((1,1-dioxidotetrahydro-2H-thiopyran-4-yl)(methyl)amino)-2-oxoethyl)acrylamide], the sensitivity to cytotoxicity entry in data set [1], in data set [2] and in [3] was “ML264-insensitive” each time. Moreover, in “Stability in PBS”, the half-life was > 48 h. In addition, the “effect on cell type” value in the data set on HCT-116 (colon) (HCT116, submicromolar doses) is reported as “significant effects at submicromolar doses”; in the data set with SW-620 (colon) (SW620, submicromolar doses) it was “significant effects at submicromolar doses”; in the data set with HT29 (colon) (HT29, submicromolar doses) it was “significant effects at submicromolar doses”. The IC50 turned out to be 0.56 µM in the data set on HCT-116 (colon) (Homo sapiens, HCT-116 (colon)); 0.029 µM with DLD-1 cell line (Homo sapiens, DLD1 (colon), viability); 0.43 µM in the data set with SW-620 (colon) (Homo sapiens, SW-620 (colon)); 0.13 µM in the data set on HT29 (colon) (Homo sapiens, HT-29, HT29 (colon)). In addition, the “off-target activity vs. 47 kinases” value with 47 kinases is “inactive”. Moreover, the “maximal effect on DLD-1 viability” value in the data set on DLD-1 cell line is > 90%. In the data set with DLD-1 cell line (Homo sapiens), this compound displayed an EC50 of 0.022 µM. In addition, the “effect on KLF5 protein levels” value in the data set on KLF5 protein (listed as ML264) is recorded as “significantly reduces KLF5 protein levels; also recorded: lowers KLF5 protein levels”. Besides, the Michael acceptor entry in data set [4] is “Michael acceptor: No”. The solubility in [5] (PBS, read-out: Solubility in PBS) came to 18.7 µM (≈ 7.2 µg/mL); in [5] (assay buffer, read-out: Solubility in assay buffer), 35 µM (≈ 13.5 µg/mL). Moreover, the “inhibition at 10 μM vs. 67 protein targets” value in data set [6] is recorded as < 50%.

On to `C[C@@H](NC(=O)/C=C/c1cccc(Cl)c1)C(=O)N(C)C1CCS(=O)(=O)CC1` [Compound 24], for which the IC50 in the data set on human KLF5 promoter (setting [7]) was > 100 µM.

Consider `CN(C(=O)CNC(=O)/C=C/c1cccc(S(=O)(=O)N(C)C)c1)C1CCS(=O)(=O)C1` (stereo not shown) [Compound 25], for which the IC50 in the data set on human KLF5 promoter (setting [7]) was > 100 µM.

As for `O=C(/C=C/c1cccc(Cl)c1)NCC(=O)NC1CCS(=O)(=O)CC1` [Compound 26], the half-inhibitory concentration (IC50) with human KLF5 promoter (setting [7]) was > 100 µM.

Turning to `C[C@@H](NC(=O)/C=C/c1cccc(Cl)c1)C(=O)NC1CCS(=O)(=O)C1` (stereo partly shown) [Compound 27], the IC50 with human KLF5 promoter (setting [7]) was > 100 µM.

Turning to `O=C(/C=C/c1cccc(Cl)c1)NCCC(=O)NC1CCS(=O)(=O)C1` (stereo not shown) [Compound 28], in the data set with human KLF5 promoter (setting [7]), the IC50 was > 100 µM.

On to `CN(C(=O)CCNC(=O)/C=C/c1cccc(Cl)c1)C1CCS(=O)(=O)C1` (stereo not shown) [Compound 29], for which the IC50 with human KLF5 promoter (setting [7]) is > 100 µM.

`C[C@@H](NC(=O)/C=C/c1cccc(Cl)c1)C(=O)N(C)C1CCS(=O)(=O)C1` (stereo partly shown) [Compound 30]: in the data set on human KLF5 promoter (setting [7]), the IC50 is > 100 µM.

With `C[C@@H](NC(=O)/C=C/c1cccc(Cl)c1)C(=O)NC1CCS(=O)(=O)CC1` [Compound 31], the IC50 in the data set with human KLF5 promoter (setting [7]) was > 100 µM.

As to `CN(C(=O)CNC(=O)c1cccc2c1OCCO2)C1CCS(=O)(=O)CC1` [Compound 32], in the data set with human KLF5 promoter (setting [7]), the IC50 was > 100 µM.

As to `CN(C(=O)CNC(=O)c1cc2cc(Cl)ccc2[nH]1)C1CCS(=O)(=O)CC1` [Compound 33], the IC50 with human KLF5 promoter (setting [7]) was > 100 µM.

Take `Cc1ccc(C2(C(=O)NCC(=O)N(C)C3CCS(=O)(=O)CC3)CC2)cc1` [Compound 34]: the IC50 in the data set on human KLF5 promoter (setting [7]) was > 100 µM.

As for `CN(C(=O)CNS(=O)(=O)c1cccc2ccccc12)C1CCS(=O)(=O)CC1` [Compound 35], in the data set on human KLF5 promoter (setting [7]), the IC50 is > 100 µM.

As for `CN(C(=O)CNC(=O)Nc1ccc(Br)cc1Br)C1CCS(=O)(=O)CC1` [Compound 36], the IC50 in the data set on human KLF5 promoter (setting [7]) is > 100 µM.

On to `CN(C(=O)CNC(=O)c1cc2ccccc2o1)C1CCS(=O)(=O)CC1` [Compound 38], for which the IC50 with human KLF5 promoter (setting [7]) is > 100 µM.

For the compound `CN(C(=O)CNC(=O)c1ccc2ccccc2n1)C1CCS(=O)(=O)CC1` [Compound 39], the IC50 in the data set on human KLF5 promoter (setting [7]) was > 100 µM.

On to `CN(C(=O)CNC(=O)Cc1ccc2c(c1)OCO2)C1CCS(=O)(=O)CC1` [Compound 40], for which, in the data set on human KLF5 promoter (setting [7]), the IC50 was > 100 µM.

Take `CN(C(=O)CNC(=O)c1ccnn1-c1ccccc1)C1CCS(=O)(=O)CC1` [Compound 41]: the IC50 with human KLF5 promoter (setting [7]) was > 100 µM.

`CN(C(=O)CNC(=O)COCc1ccccc1)C1CCS(=O)(=O)CC1` [Compound 42]: the IC50 with human KLF5 promoter (setting [7]) was > 100 µM.

Turning to `COc1ccc(CC(=O)NCC(=O)N(C)C2CCS(=O)(=O)CC2)cc1` [Compound 43], in the data set with human KLF5 promoter (setting [7]), the IC50 is > 100 µM.

As for `CN(C(=O)CNC(=O)C1CCc2ccccc2O1)C1CCS(=O)(=O)CC1` (stereo not shown) [Compound 44], the IC50 in the data set with human KLF5 promoter (setting [7]) was > 100 µM.

Consider `CN(C(=O)CNC(=O)c1coc2ccccc2c1=O)C1CCS(=O)(=O)CC1` [Compound 45], for which, in the data set with human KLF5 promoter (setting [7]), the IC50 was > 100 µM.

Regarding `CN(C(=O)CNC(=O)c1ccc2cc[nH]c2c1)C1CCS(=O)(=O)CC1` [Compound 46], in the data set with human KLF5 promoter (setting [7]), the IC50 was > 100 µM.

As for `CN(C(=O)CNC(=O)c1ccc2ncsc2c1)C1CCS(=O)(=O)CC1` [Compound 47], the IC50 in the data set with human KLF5 promoter (setting [7]) was > 100 µM.

For the compound `CN(C(=O)CNC(=O)c1cnc2ccc(Cl)cc2c1)C1CCS(=O)(=O)CC1` [Compound 48], the IC50 in the data set with human KLF5 promoter (setting [7]) was > 100 µM.

Take `CN(C(=O)CNC(=O)c1ccsc1)C1CCS(=O)(=O)CC1` [Compound 49]: in the data set on human KLF5 promoter (setting [7]), the IC50 is > 100 µM.

As to `COc1cccc(CNC(=O)NCC(=O)N(C)C2CCS(=O)(=O)CC2)c1` [Compound 50], in the data set on human KLF5 promoter (setting [7]), the IC50 is > 100 µM.

For the compound `O=C(/C=C/c1cccc(Cl)c1)NCC(=O)N(C1CC1)C1CCS(=O)(=O)CC1` [Compound 52], in the data set on human KLF5 promoter (DlD-1 4.9 cell line), the IC50 is > 100 µM.

Turning to `CN(C(=O)COC(=O)/C=C/c1cccc([N+](=O)[O-])c1)C1CCS(=O)(=O)C1` (stereo not shown) [Compound 53C, reference compound], the EC50 in the data set on DLD-1 cell line (Homo sapiens) came out at 1.51 µM. Besides, in the data set on human KLF5 promoter (setting [7]), the IC50 stood at 0.27 µM.

In the data set on DLD-1 cell line (Homo sapiens), `O=C(/C=C/c1cccc(Cl)c1)NCC(=O)N(C1CC1)C1CCS(=O)(=O)CC1` [Compound 54] showed an EC50 of 0.39 µM. The compound also registered an IC50 in the data set on human KLF5 promoter (DlD-1 4.9 cell line) of 7.8 µM.
